Key:
[1] = test system: antibodies in sera from SARS patients (sera 1a, 1b, 2, 6, 37, 62, London, SARS-yellow, SARS-green); type: binding, human; design: Binding of serum 6 to linear peptides of protein X1 of SARS-CoV Urbani / Binding of serum 37 to linear peptides of protein X1 of SARS-CoV Urbani / Binding of serum 6 to looped/cyclic peptide (PEPSCAN-ELISA) / Binding of serum 37 to looped/cyclic peptide (PEPSCAN-ELISA) / Binding of serum 37 to looped/cyclic peptides of protein X1 of SARS-CoV Urbani / Binding of serum 6 to linear peptides of protein X2 / Binding of serum 37 to linear peptides of protein X2 / Binding of serum 37 to looped/cyclic peptides of protein X2 of SARS-CoV Urbani / Binding of serum 6 to linear peptides of protein M of SARS-CoV Urbani / Binding of serum 37 to linear peptides of protein M of SARS-CoV Urbani / Binding of serum 6 to looped/cyclic peptides of protein M of SARS-CoV Urbani / Binding of serum 37 to looped/cyclic peptides of protein M of SARS-CoV Urbani / Binding of serum 6 to linear peptides of protein X3 of SARS-CoV Urbani / Binding of serum 37 to linear peptides of protein X3 of SARS-CoV Urbani / Binding of serum 37 to looped/cyclic peptides of protein X3 of SARS-CoV Urbani / Binding of serum 6 to linear peptides of protein X4 of SARS-CoV Urbani / Binding of serum 37 to linear peptides of protein X4 of SARS-CoV Urbani / Binding of serum 37 to looped/cyclic peptides of protein X4 of SARS-CoV Urbani / Binding of serum 6 to linear peptides of protein X5 of SARS-CoV Urbani / Binding of serum 37 to linear peptides of protein X5 of SARS-CoV Urbani / Binding of serum 37 to looped/cyclic peptides of protein X5 of SARS-CoV Urbani / Binding of serum 6 to linear peptides of protein N of SARS-CoV Urbani / Binding of serum 37 to linear peptides of protein N of SARS-CoV Urbani / Binding of serum 6 to linear peptide (PEPSCAN-ELISA) / Binding of serum 1a to looped/cyclic peptides of protein N of SARS-CoV Urbani / Binding of serum 1b to looped/cyclic peptides of protein N of SARS-CoV Urbani / Binding of serum 2 to looped/cyclic peptides of protein N of SARS-CoV Urbani / Binding of serum 6 to looped/cyclic peptides of protein N of SARS-CoV Urbani / Binding of serum 37 to looped/cyclic peptides of protein N of SARS-CoV Urbani / Binding of serum 62 to looped/cyclic peptides of protein N of SARS-CoV Urbani / Binding of serum London to looped/cyclic peptides of protein N of SARS-CoV Urbani / Binding of serum SARS-green to looped/cyclic peptides of protein N of SARS-CoV Urbani: unit not given here
[2] = test system: rabbit serum obtained by immunizing a rabbit with the SARS-CoV strain Frankfurt 1; type: binding; design: Binding of a rabbit serum to linear peptides / Binding of a rabbit serum to looped peptides / Rabbit serum linear peptides / Rabbit serum looped peptides / Binding of a rabbit serum to linear peptides of protein N of SARS-CoV Urbani (Rabbit serum linear peptides) / Binding of a rabbit serum to looped/cyclic peptides of protein N of SARS-CoV Urbani (Rabbit serum looped peptides): unit not given here

Sequence: IGVAFLAVFQSATKI
- Binding of serum 1a to linear peptides of protein X1 of SARS-CoV Urbani [1]: 0.6
- Binding of serum 1a to looped/cyclic peptide (PEPSCAN-ELISA) [1]: 0.5
- Binding of serum 1b to linear peptides of protein X1 of SARS-CoV Urbani [1]: 0.5
- Binding of serum 1b to looped/cyclic peptide (PEPSCAN-ELISA) [1]: 0.4
- Binding of serum 2 to linear peptides of protein X1 of SARS-CoV Urbani [1]: 0.6
- Binding of serum 2 to looped/cyclic peptide (PEPSCAN-ELISA) [1]: 0.4
- Binding of serum 6 to linear peptides of protein X1 of SARS-CoV Urbani [1]: 0.5
- Binding of serum 6 to looped/cyclic peptide (PEPSCAN-ELISA) [1]: 0.3
- Binding of serum 37 to linear peptides of protein X1 of SARS-CoV Urbani [1]: 0.6
- Binding of serum 37 to looped/cyclic peptide (PEPSCAN-ELISA) [1]: 0.5
- Binding of serum 62 to linear peptides of protein X1 of SARS-CoV Urbani [1]: 0.6
- Binding of serum 62 to looped/cyclic peptide (PEPSCAN-ELISA) [1]: 0.6
- Binding of serum London to linear peptides of protein X1 of SARS-CoV Urbani [1]: 0.2
- Binding of serum London to looped/cyclic peptide (PEPSCAN-ELISA) [1]: 0.2
- Binding of serum SARS-green to linear peptides of protein X1 of SARS-CoV Urbani [1]: 0.2
- Binding of serum SARS-green to looped/cyclic peptide (PEPSCAN-ELISA) [1]: 0.2
- Binding of serum SARS-yellow to linear peptides of protein X1 of SARS-CoV Urbani [1]: 0.3
- Binding of serum SARS-yellow to looped/cyclic peptide (PEPSCAN-ELISA) [1]: 0.3
- Binding of a rabbit serum to linear peptides [2]: 0.1
- Binding of a rabbit serum to looped peptides [2]: 0.6

Sequence: IIALNKRWQLALYKG
- Binding of serum 1a to linear peptides of protein X1 of SARS-CoV Urbani [1]: 0.7
- Binding of serum 1a to looped/cyclic peptide (PEPSCAN-ELISA) [1]: 0.6
- Binding of serum 1b to linear peptides of protein X1 of SARS-CoV Urbani [1]: 0.4
- Binding of serum 1b to looped/cyclic peptide (PEPSCAN-ELISA) [1]: 0.4
- Binding of serum 2 to linear peptides of protein X1 of SARS-CoV Urbani [1]: 0.5
- Binding of serum 2 to looped/cyclic peptide (PEPSCAN-ELISA) [1]: 0.5
- Binding of serum 6 to linear peptides of protein X1 of SARS-CoV Urbani [1]: 0.7
- Binding of serum 6 to looped/cyclic peptide (PEPSCAN-ELISA) [1]: 0.6
- Binding of serum 37 to linear peptides of protein X1 of SARS-CoV Urbani [1]: 0.6
- Binding of serum 37 to looped/cyclic peptide (PEPSCAN-ELISA) [1]: 0.6
- Binding of serum 62 to linear peptides of protein X1 of SARS-CoV Urbani [1]: 0.5
- Binding of serum 62 to looped/cyclic peptide (PEPSCAN-ELISA) [1]: 0.6
- Binding of serum London to linear peptides of protein X1 of SARS-CoV Urbani [1]: 0.3
- Binding of serum London to looped/cyclic peptide (PEPSCAN-ELISA) [1]: 0.4
- Binding of serum SARS-green to linear peptides of protein X1 of SARS-CoV Urbani [1]: 0.3
- Binding of serum SARS-green to looped/cyclic peptide (PEPSCAN-ELISA) [1]: 0.2
- Binding of serum SARS-yellow to linear peptides of protein X1 of SARS-CoV Urbani [1]: 0.5
- Binding of serum SARS-yellow to looped/cyclic peptide (PEPSCAN-ELISA) [1]: 0.5
- Recognition of the peptide by the rabbit serum [2]: recognized

Sequence: LACFVLAAVYRINWV
- Binding of serum 1a to linear peptides of protein M of SARS-CoV Urbani [1]: 0.7
- Binding of serum 1a to looped/cyclic peptides of protein M of SARS-CoV Urbani [1]: 0.7
- Binding of serum 1b to linear peptides of protein M of SARS-CoV Urbani [1]: 0.7
- Binding of serum 1b to looped/cyclic peptides of protein M of SARS-CoV Urbani [1]: 0.5
- Binding of serum 2 to linear peptides of protein M of SARS-CoV Urbani [1]: 0.6
- Binding of serum 2 to looped/cyclic peptides of protein M of SARS-CoV Urbani [1]: 0.9
- Binding of serum 6 to linear peptides of protein M of SARS-CoV Urbani [1]: 0.4
- Binding of serum 6 to looped/cyclic peptides of protein M of SARS-CoV Urbani [1]: 0.7
- Binding of serum 37 to linear peptides of protein M of SARS-CoV Urbani [1]: 0.5
- Binding of serum 37 to looped/cyclic peptides of protein M of SARS-CoV Urbani [1]: 0.6
- Binding of serum 62 to linear peptides of protein M of SARS-CoV Urbani [1]: 0.5
- Binding of serum 62 to looped/cyclic peptides of protein M of SARS-CoV Urbani [1]: 0.7
- Binding of serum London to linear peptides of protein M of SARS-CoV Urbani [1]: 0.4
- Binding of serum London to looped/cyclic peptides of protein M of SARS-CoV Urbani [1]: 0.3
- Binding of serum SARS-green to linear peptides of protein M of SARS-CoV Urbani [1]: 0.6
- Binding of serum SARS-green to looped/cyclic peptides of protein M of SARS-CoV Urbani [1]: 0.3
- Binding of serum SARS-yellow to linear peptides of protein M of SARS-CoV Urbani [1]: 0.3
- Binding of serum SARS-yellow to looped/cyclic peptides of protein M of SARS-CoV Urbani [1]: 0.4
- Rabbit serum linear peptides [2]: 0.3
- Rabbit serum looped peptides [2]: 0.2

Source: patent US20070128217A1 (priority 2003, published 2007)
